The term EC50 denotes the concentration that produces a half-maximal response. Low values mean a more potent agent, high ones a less potent agent.

Experimental findings from PMC4551797 (PLoS ONE, 2015) are described below.

The assay addresses T1, FXR (Homo sapiens, UniProt Q96RI1).
T1 sequence (Q96RI1 1-486): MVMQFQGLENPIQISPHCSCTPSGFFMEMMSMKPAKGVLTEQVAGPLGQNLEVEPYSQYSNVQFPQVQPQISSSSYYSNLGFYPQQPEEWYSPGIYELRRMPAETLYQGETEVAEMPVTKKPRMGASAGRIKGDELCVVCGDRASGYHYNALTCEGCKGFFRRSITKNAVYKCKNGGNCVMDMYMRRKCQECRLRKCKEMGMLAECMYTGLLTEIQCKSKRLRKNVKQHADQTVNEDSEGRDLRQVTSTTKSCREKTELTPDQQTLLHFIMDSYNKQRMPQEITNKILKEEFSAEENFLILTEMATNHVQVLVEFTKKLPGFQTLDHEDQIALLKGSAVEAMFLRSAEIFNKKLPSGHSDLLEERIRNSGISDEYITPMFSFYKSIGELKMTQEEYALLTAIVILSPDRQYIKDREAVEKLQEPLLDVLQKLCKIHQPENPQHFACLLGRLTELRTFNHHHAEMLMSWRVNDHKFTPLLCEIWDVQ
In words: Selectivity: nuclear hormone receptor FXR.

Regarding `CC(=O)N1CCC(C(C)N(C(=O)COc2cccc3sc4nc(C)cn4c23)c2ccc(F)cc2)CC1` (stereo not shown) [compound 18], the EC50 is above 125 µM.
